Test results from paper PMC9835529, “Investigation of Novel Quinoline–Thiazole Derivatives as Antimicrobial Agents: In Vitro and In Silico Approaches” (ACS Omega, 2022).
In brackets after ≈: the same amount, converted by molar mass.

Columns and labels:
E. coli ATCC 25922 = experiment: Antibacterial broth microdilution (CLSI M07-A9), MIC90; assay type: cell-based; conditions: for MIC90: Escherichia coli, ATCC25922
Source text: (§1) The broth microdilution procedure specified in the M07-A9 document of the Clinical and Laboratory Standards Institute (CLSI) was used for antibacterial study,[55] and the EDef 7.1 document published by EUCAST was used for the antifungal study.[56] For both activity studies, the detailed procedures were explained in previous studies.[57],[58]

[1] = tested on: Escherichia coli ATCC 35218; experiment: as above; assay type: cell-based; conditions: E. coli ATCC 35218; for MIC90: Escherichia coli, ATCC35218
Source text: as §1

[2] = tested on: Klebsiella pneumoniae NCTC 9633; experiment: as above; assay type: cell-based; conditions: NCTC9633, K. pneumoniae NCTC 9633
Source text: as §1

[3] = tested on: Salmonella typhimurium ATCC 13311; experiment: as above; assay type: cell-based; conditions: Salmonella enterica; S. typhimurium ATCC 13311
Source text: as §1

[4] = tested on: Staphylococcus aureus ATCC 6538; experiment: as above; assay type: cell-based; conditions: Staphylococcus aureus, ATCC6538; S. aureus ATCC 6538; read-out: MIC90
Source text: as §1

[5] = tested on: methicillin-resistant S. aureus (MRSA) (clinical isolate); experiment: as above; assay type: cell-based; conditions: for MIC90: Staphylococcus aureus
Source text: as §1

[6] = tested on: Candida albicans ATCC 24433; experiment: Anticandidal broth microdilution (EUCAST EDef 7.1), MIC90; assay type: cell-based; conditions: Candida albicans, ATCC24433, C. albicans ATCC 24433; read-out: MIC90
Source text: (§2) E. coli (ATCC 35218), E. coli (ATCC 25922), S. aureus (ATCC 6538), methicillin-resistant S. aureus (MRSA) (clinical isolate), S. typhimurium (ATCC 13311), and K. pneumoniae (NCTC 9633) cells for antibacterial effect, and C. albicans (ATCC 24433), C. glabrata (ATCC 90030), C. krusei (ATCC 6258), and C. parapsilosis (ATCC 22019) for the antifungal effect of the final compounds were used to determine the MIC90 values. The broth microdilution procedure specified in the M07-A9 document of the Clinical and Laboratory Standards Institute (CLSI) was used for antibacterial study,[55] and the EDef 7.1 document published by EUCAST was used for the antifungal study.[56] For both activity studies, the detailed procedures were explained in previous studies.[57],[58]

Candida krusei ATCC 6258 = experiment: as above; assay type: cell-based; conditions: Pichia kudriavzevii, ATCC6258, C. krusei ATCC 6258; read-out: MIC90
Source text: as §2

[7] = tested on: Candida parapsilosis ATCC 22019; experiment: as above; assay type: cell-based; conditions: Lodderomyces parapsilosis, ATCC22019, C. parapsilosis ATCC 22019; read-out: MIC90
Source text: as §2

C. glabrata ATCC 90030 = experiment: as above; assay type: cell-based, Candida glabrata; conditions: Nakaseomyces glabratus, ATCC90030, C. glabrata ATCC 90030
Source text: as §2

NIH/3T3 cells = experiment: Cytotoxicity on NIH/3T3 healthy cell line; assay type: cell-based; conditions: Mus musculus, NIH3T3, 24 h incubation
Experimental: NIH/3T3 cells were incubated in Dulbecco’s modified Eagle’s medium (DMEM) (Sigma-Aldrich, St. Louis, MO), added with fetal calf serum, penicillin (100 IU/mL), streptomycin ([…]), and 7.5% NaHCO3 at 37 °C in a humidified atmosphere of 95% air and 5% CO2. NIH/3T3 cells were seeded into the 96-well plates at a density of 1 × 10^4 cells. After 24 h of incubating period, the culture media were removed, and test compounds were added. After 24 h of incubation period, colorimetric measurements were performed by a microplate reader (Biotek) at 540 nm. Inhibition % at all concentrations was determined using the formula below, and the IC50 values were calculated from a dose–response curve obtained by plotting the percentage inhibition versus the log concentration with the use of Microsoft Excel 2013.

[8] = tested on: Lanosterol 14α-demethylase (LMD, CYP51A1); experiment: LDM (CYP51A1) inhibition by LC-MS-MS quantification of ergosterol level; assay type: cell-based
Experimental: The activity of the target compounds was tested against Candida strains via the determination of ergosterol production.
Ergosterol level was determined using the extract of total sterols from C. albicans (and its other species) following the method described by Breivik and Owades.[63] Quantification of the ergosterol level in this extract was carried out by the recently described method.[58],[64]−[66] According to these described studies, in the current work, compounds 4b, 4e, 4f, and 4h–m were undertaken to investigate their action mechanism. Thus, the LC-MS-MS-based method that quantifies the ergosterol level was applied. […]. Ergosterol quantity in negative control samples was regarded as 100%. All concentrations were analyzed in quadruplicate, and the results were expressed as mean ± standard deviation (SD).

[9] = biological target: T1, human aromatase enzyme (CYP19A) (Homo sapiens, UniProt P11511); experiment: Aromatase (CYP19A) Inhibitor Screening Kit (Fluorometric); assay type: biochemical
T1 construct: purchased Bio Vision
T1 sequence (P11511 1-503): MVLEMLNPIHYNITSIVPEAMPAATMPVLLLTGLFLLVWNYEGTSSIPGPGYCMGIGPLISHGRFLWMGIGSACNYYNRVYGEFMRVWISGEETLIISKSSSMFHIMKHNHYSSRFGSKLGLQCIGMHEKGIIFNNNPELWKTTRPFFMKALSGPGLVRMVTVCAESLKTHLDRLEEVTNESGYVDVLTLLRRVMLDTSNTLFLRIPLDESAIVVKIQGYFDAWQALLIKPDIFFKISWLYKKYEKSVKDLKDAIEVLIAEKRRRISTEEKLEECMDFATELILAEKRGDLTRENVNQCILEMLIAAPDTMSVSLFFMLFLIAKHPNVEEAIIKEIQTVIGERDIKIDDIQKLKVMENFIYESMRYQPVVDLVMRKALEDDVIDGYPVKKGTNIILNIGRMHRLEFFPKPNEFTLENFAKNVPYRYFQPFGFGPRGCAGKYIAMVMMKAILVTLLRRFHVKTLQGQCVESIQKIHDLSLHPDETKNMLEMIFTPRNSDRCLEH

E. coli DNA gyrase = biological target: T2, E. coli DNA gyrase (Escherichia coli, UniProt P0AES4+P0AES6); experiment: DNA-gyrase supercoiling inhibition by electrophoresis (TopoGen kit); assay type: biochemical; conditions: relaxed pHOT1 DNA
T2 construct: purchased TopoGen SKU TG2000G-3
Experimental: DNA gyrase obtained from E. coli was used to detect the inhibition of the superhelix activity of DNA gyrase. The method was performed according to the kit protocol described by the supplier (SKU TG2000G-3, TopoGen). The detailed procedures were explained in the previous study.[62]

T2 sequence (P0AES4 whole entry, one chain of several): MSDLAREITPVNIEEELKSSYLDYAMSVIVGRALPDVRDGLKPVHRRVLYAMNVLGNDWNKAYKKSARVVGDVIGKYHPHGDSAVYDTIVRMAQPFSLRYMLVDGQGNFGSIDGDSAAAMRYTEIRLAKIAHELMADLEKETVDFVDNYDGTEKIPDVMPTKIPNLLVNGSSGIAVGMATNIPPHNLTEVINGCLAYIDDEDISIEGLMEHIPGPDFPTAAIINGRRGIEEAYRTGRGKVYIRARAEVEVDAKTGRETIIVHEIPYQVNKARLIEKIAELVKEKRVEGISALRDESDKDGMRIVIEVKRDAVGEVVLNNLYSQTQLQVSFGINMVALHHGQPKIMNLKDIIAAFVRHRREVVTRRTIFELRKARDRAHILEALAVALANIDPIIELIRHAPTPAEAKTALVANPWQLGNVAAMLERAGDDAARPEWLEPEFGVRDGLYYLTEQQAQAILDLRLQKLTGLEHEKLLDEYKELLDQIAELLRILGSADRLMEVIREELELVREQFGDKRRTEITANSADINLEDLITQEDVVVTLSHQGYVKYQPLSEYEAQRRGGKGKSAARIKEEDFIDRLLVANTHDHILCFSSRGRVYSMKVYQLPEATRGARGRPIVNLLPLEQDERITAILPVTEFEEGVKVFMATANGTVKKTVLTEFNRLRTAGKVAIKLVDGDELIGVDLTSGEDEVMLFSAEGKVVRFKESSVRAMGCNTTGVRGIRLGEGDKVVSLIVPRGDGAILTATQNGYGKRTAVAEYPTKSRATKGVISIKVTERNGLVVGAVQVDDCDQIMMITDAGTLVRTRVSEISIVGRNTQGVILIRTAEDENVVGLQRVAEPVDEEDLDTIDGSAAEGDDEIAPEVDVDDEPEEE

Row | Compound | MIC90 (E. coli ATCC 25922) | MIC90 [1] | MIC90 [2] | MIC90 [3] | MIC90 [4] | MIC90 [5] | MIC90 [6] | MIC90 (Candida krusei ATCC 6258) | MIC90 [7] | MIC90 (C. glabrata ATCC 90030) | IC50 (NIH/3T3 cells) | effect on ergosterol production / LMD enzyme inhibition (in words) ([8]; C. krusei) | CYP51A1 Inhibition% ([8]; C. krusei, 0.06 μg/mL) | CYP51A1 Inhibition% ([8]; C. krusei, 0.24 μg/mL) | IC50 [9] | melting point | effect on ergosterol production / LMD enzyme inhibition (in words) ([8]; C. parapsilosis) | CYP51A1 Inhibition% ([8]; C. parapsilosis, 0.06 μg/mL) | CYP51A1 Inhibition% ([8]; C. parapsilosis, 0.24 μg/mL) | CYP51A1 Inhibition% ([8]; C. parapsilosis, 0.98 μg/mL) | also measured
1 | COc1ccc2nc(Cl)c(/C=N/Nc3nc(-c4cccc([N+](=O)[O-])c4)cs3)cc2c1 [4i] | > 1000 µg/mL | > 1000 µg/mL | > 1000 µg/mL | > 1000 µg/mL | > 1000 µg/mL | > 1000 µg/mL | 1.95 µg/mL (≈ 4.43 µM) | 1.95 µg/mL (≈ 4.43 µM) | 1.95 µg/mL (≈ 4.43 µM) | 1.95 µg/mL (≈ 4.43 µM) | 8.54 ± 0.26 µM | did not decrease the ergosterol production compared to the standard drugs | 11.662 ± 0.479% | 14.178 ± 0.655% | 0.033 ± 0.001 µM | 212 to 214 °C | – | – | – | – | CYP51A1 Inhibition% ([8]; C. krusei, 0.98 μg/mL): 18.361 ± 0.767%
2 | COc1ccc2nc(Cl)c(C=NNc3nc(-c4cccc5ccccc45)cs3)cc2c1 [4m] | 7.81 µg/mL (≈ 17.6 µM) | 7.81 µg/mL (≈ 17.6 µM) | > 1000 µg/mL | > 1000 µg/mL | 7.81 µg/mL (≈ 17.6 µM) | 7.81 µg/mL (≈ 17.6 µM) | 1.95 µg/mL (≈ 4.38 µM) | ≤ 0.06 µg/mL | 0.24 µg/mL (≈ 0.539 µM) | 1.95 µg/mL (≈ 4.38 µM) | 34.5 ± 0.88 µM | showed their anticandidal activity via LMD enzyme inhibition | 48.431 ± 2.036% | 61.289 ± 1.461% | – | 174 to 179 °C | – | – | – | – | times more effective than chloramphenicol (MIC90) (E. coli ATCC 25922): twice; times more effective than chloramphenicol (MIC90) [1]: four times; times more effective than the standard drug chloramphenicol (MIC90) [5]: 4; DNA-gyrase inhibition (electrophoresis image) (E. coli DNA gyrase): no peak belonging to the supercoiled DNA; CYP51A1 Inhibition% ([8]; C. krusei, 0.98 μg/mL): 70.574 ± 2.648%
3 | COc1cccc(-c2csc(N/N=C/c3cc4cc(OC)ccc4nc3Cl)n2)c1 [4k] | > 1000 µg/mL | > 1000 µg/mL | > 1000 µg/mL | > 1000 µg/mL | > 1000 µg/mL | > 1000 µg/mL | 1.95 µg/mL (≈ 4.59 µM) | 1.95 µg/mL (≈ 4.59 µM) | 1.95 µg/mL (≈ 4.59 µM) | 1.95 µg/mL (≈ 4.59 µM) | 12 ± 0.44 µM | – | – | – | 0.038 ± 0.001 µM | 217 to 220 °C | did not decrease the ergosterol production compared to the standard drugs | 11.449 ± 0.518% | 15.662 ± 0.616% | 17.437 ± 0.861% | –
4 | COc1ccc(-c2csc(N/N=C/c3cc4cc(OC)ccc4nc3Cl)n2)cc1 [4g] | 3.91 µg/mL (≈ 9.2 µM) | 7.81 µg/mL (≈ 18.4 µM) | > 1000 µg/mL | > 1000 µg/mL | 7.81 µg/mL (≈ 18.4 µM) | 3.91 µg/mL (≈ 9.2 µM) | > 1000 µg/mL | 31.2 µg/mL (≈ 73.5 µM) | 3.91 µg/mL (≈ 9.2 µM) | 15.6 µg/mL (≈ 36.8 µM) | 10.4 ± 0.22 µM | – | – | – | – | 176 to 180 °C | – | – | – | – | times more effective than chloramphenicol (MIC90) (E. coli ATCC 25922): four times; times more effective than chloramphenicol (MIC90) [1]: four times; times more effective than the standard drug chloramphenicol (MIC90) [5]: 8; DNA-gyrase inhibition (electrophoresis image) (E. coli DNA gyrase): no peak belonging to the supercoiled DNA
5 | COc1ccc2nc(Cl)c(C=NNc3nc(-c4cccc(F)c4)cs3)cc2c1 [4j] | > 1000 µg/mL | > 1000 µg/mL | > 1000 µg/mL | > 1000 µg/mL | > 1000 µg/mL | > 1000 µg/mL | > 1000 µg/mL | 62.5 µg/mL (≈ 151 µM) | < 0.06 µg/mL | > 1000 µg/mL | 10 ± 0.39 µM | – | – | – | 0.047 ± 0.001 µM | 221 to 223 °C | showed their anticandidal activity via LMD enzyme inhibition | 41.867 ± 0.968% | 55.281 ± 1.174% | 63.508 ± 1.948% | –
6 | COc1ccc2nc(Cl)c(C=NNc3nc(-c4ccncc4)cs3)cc2c1 [4l] | > 1000 µg/mL | > 1000 µg/mL | > 1000 µg/mL | > 1000 µg/mL | > 1000 µg/mL | > 1000 µg/mL | 1.95 µg/mL (≈ 4.93 µM) | > 1000 µg/mL | 1.95 µg/mL (≈ 4.93 µM) | 1.95 µg/mL (≈ 4.93 µM) | > 1000 µM | – | – | – | 0.042 ± 0.002 µM | 250 to 257 °C | showed their anticandidal activity via LMD enzyme inhibition | 40.328 ± 1.326% | 56.137 ± 0.928% | 62.949 ± 2.626% | –
